Key:
Avi-tagged FL MALT-1 = Avi-tagged FL MALT-1 (Homo sapiens (Human), UniProt Q9UDY8); experiment: MALT-1 Fluorogenic Peptide Cleavage Assay (MALT1 inhibition assay); assay type: biochemical; conditions: Ac-LRSR-AMC peptide substrate, 30 min pre-incubation, 90 min reaction at room temperature
Method: Inhibition of MALT1 activity by the presence of small molecules was evaluated using MALT-1 Fluorogenic Peptide Cleavage Assay. The assay utilizes a quenched AMC-labelled peptide that contains the MALT-1 recognition sequence and cleavage site (LRSR). MALT-1 mediated cleavage of the peptide relieves the quenching and leads to an increase in fluorescence at excitation (342 nm) and emission (441 nm).
The following reagents were obtained commercially and used to prepare standard reagent formulations as further described below: N-2-hydroxyethylpiperazine-N-2-ethane sulfonic acid (HEPES) (1 M, pH 7.5, stored at 4° C.), sodium citrate (stored at RT), tris(2-carboxyethyl) phosphine hydrochloride (T-CEP) (500 mM, stored at −20° C.), ethylenediaminetetraacetic acid (EDTA) (500 mM, stored at RT), dimethylsulfoxide (DMSO, stored at RT), 3-[(3-cholamido-propyl)dimethylammonio]-1-propane sulphate (CHAPS) (stored at RT), dimethylsulfoxide (DMSO), DMSO (Fisher Scientific, stored at RT), Avi-tagged FL MALT-1 (Pharmaron, stored at −70° C.), Ac-LRSR-AMC Peptide (SM Biochemicals, stored at −20° C.)., and ultrapure water (MILLLI-Q©).
The standard reagent formulations used in this assay were prepared and stored as follows. A 1.1 M solution of sodium citrate (161.3 g, 500 mL) was prepared and stored at room temperature. A 10% (w/v) CHAPS solution (2.0 g, 20 mL) was prepared and stored at 4° C. A 500 mM HEPES solution having pH of 6.89 was prepared from 200 mL of a 1 M HEPES solution having a pH of 7.5 using concentrated hydrochloric acid and brought to a final volume of 400 mL with MILLI-Q© H2O. The substrate, 10 mM Ac-LRSR-AMC Peptide, was prepared (10 mg, 1.370 mL DMSO) and stored at −20° C.
Compounds were plated to provide a 2% DMSO final concentration using a ProxiPlate-384 Plus F Black 384-shallow well microplate. The assay-ready plates were equilibrated to room temperature. A reaction buffer (30 mL total volume) was prepared by combining HEPES (pH 6.89, 25 mM, 1.5 mL), sodium citrate (660 mM, 18.0 mL), T-CEP (1 mM, 0.06 mL), EDTA ([…], 0.06 mL), CHAPS (0.05%, 0.15 mL), DMSO (2%, 0.6 mL), and MILLI-Q© H2O (10.23 mL; 9.63 mL when backfilled to 2% DMSO) followed by thorough mixing. DMSO was added only when compound plates had not been DMSO-backfilled to 2%.
MALT-1 was thawed and kept on ice. Peptide substrate was thawed on the bench under ambient conditions. A MALT-1 enzyme working stock was prepared from Avi-tagged FL MALT-1 (40 nM in a prepared reagent volume of 16.5 μL) and the reaction buffer (13.0 mL). MALT1 working stock (5 μL) was added to each well of the microplate. MALT-1 was pre-incubated with compounds for 30 minutes at room temperature.
Two substrate working stocks (Km and 10×Km) were prepared. The 1×Km substrate was prepared from Ac-LRSR-AMC Peptide (50 μM in a prepared reagent volume of 35.0 μL) and the reaction buffer (6.965 mL). The 10×Km substrate was prepared from Ac-LRSR-AMC Peptide (280 μM in a prepared reagent volume of 196.0 μL) and the reaction buffer (6.804 mL). The reaction was initiated by the addition of substrate working stock (5 μL, 50 μM) to Km plates and the addition of substrate working stock (5 μL 280 μM) to 10×Km plates. The plates were covered and incubated on the bench at room temperature for 90 minutes.
Fluorescence intensity was determined using a CLARIOstar microplate reader (BMG LABTECH) using the optimised AMC mode. Before taking readings, a 70% gain was applied on the neutral control well. Compound data were normalised to % Inhibition and used to plot sigmoidal concentration response curves to yield various parameters including IC50.

[1] = tested on: NF-kB reporter in Jurkat cells; experiment: NF-kB reporter assay in Jurkat cells stimulated with aCD3/aCD28/PMA; assay type: cell-based; conditions: Homo sapiens; Jurkat cells, 1 hr compound pre-incubation, aCD3/aCD28/PMA stimulation 4 hr, One-Glo readout; read-out: NF-kB Reporter Assay IC50
Method: Jurkat cells were maintained in complete RPMI 1640 media supplemented with 10% FBS. Prior to the assay, 120 nL of the serial diluted compound was added in each well of 384-well flat bottom white plate (Corning #3570) by using liquid handler Echo550. Jurkat cells were harvested by centrifugation at 120 g for 10 min and resuspended in fresh RPMI 1640 media without serum. […] (25,000 cells) were seeded in each well of 384-well plate containing compound. After 1 hr incubation at 37° C. in a 5% CO2 incubator, […] of diluted aCD3/aCD28/PMA (final concentration at […] and […], respectively) in RPMI 1640 without serum were added to each well. After incubation at 37° C. in 5% CO2 for 4 hr, […] of One-Glo reagent (Promega #E6120) was added into each well. The plate was left at room temperature for 5 min and the signal was measured on EnVision (PerkinElmer).
Compounds in which an IC50 was not measured are designated as “N/A”.

Avi-tagged FL MALT-1, sequence (Q9UDY8 whole entry): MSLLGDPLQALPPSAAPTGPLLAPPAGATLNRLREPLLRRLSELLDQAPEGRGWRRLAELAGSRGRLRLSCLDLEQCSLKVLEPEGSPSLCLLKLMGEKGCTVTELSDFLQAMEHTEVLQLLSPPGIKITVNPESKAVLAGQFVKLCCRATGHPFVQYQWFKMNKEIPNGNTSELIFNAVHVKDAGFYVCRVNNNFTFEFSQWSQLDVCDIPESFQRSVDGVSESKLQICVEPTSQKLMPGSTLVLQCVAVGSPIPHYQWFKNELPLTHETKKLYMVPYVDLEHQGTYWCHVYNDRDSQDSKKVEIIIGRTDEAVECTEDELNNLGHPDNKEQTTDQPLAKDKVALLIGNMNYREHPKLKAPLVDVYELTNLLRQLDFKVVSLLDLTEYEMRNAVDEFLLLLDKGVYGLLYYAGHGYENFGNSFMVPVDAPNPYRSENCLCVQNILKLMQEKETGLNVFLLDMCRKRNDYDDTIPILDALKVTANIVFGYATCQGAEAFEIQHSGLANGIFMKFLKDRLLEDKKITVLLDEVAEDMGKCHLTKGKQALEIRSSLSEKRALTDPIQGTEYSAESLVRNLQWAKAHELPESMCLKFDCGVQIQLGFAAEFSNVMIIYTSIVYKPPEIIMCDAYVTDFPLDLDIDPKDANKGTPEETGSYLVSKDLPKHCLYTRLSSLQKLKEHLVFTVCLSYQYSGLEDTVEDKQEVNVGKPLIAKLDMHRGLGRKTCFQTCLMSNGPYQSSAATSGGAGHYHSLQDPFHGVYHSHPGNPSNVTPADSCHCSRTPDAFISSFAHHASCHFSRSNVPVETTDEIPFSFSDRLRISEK

SMILES	IC50 (Avi-tagged FL MALT-1)	IC50 [1]
CCc1ccc2[nH]nc(C)c2c1N(C)S(=O)(=O)c1cnn(-c2cc(C)ccn2)c1 [Compound I-78, N-(5-Ethyl-3-Methyl-1H-Indazol-4-yl)-N-Methyl-1-(4-Methylpyridin-2-yl)Pyrazole-4-Sulfonamide]	≤ 400 nM	400 to 1000 nM
COc1ccc2cnn(C)c2c1NS(=O)(=O)c1cnn(-c2cc(C(C)(C)O)ccn2)c1 [Compound I-135, 1-(4-(2-hydroxypropan-2-yl)pyridin-2-yl)-N-(6-methoxy-1-methyl-1H-indazol-7-yl)-1H-pyrazole-4-sulfonamide]	400 to 1000 nM	< 400 nM
C[C@@H]1COC(=O)N1c1ccnc(-n2cc(S(=O)(=O)Nc3cccc4cnn(C)c34)cn2)c1 [Compound I-302]	> 2500 nM	< 400 nM
COc1ncc2cnn(C)c2c1NS(=O)(=O)c1cnn(-c2cc(C(F)(F)F)n(C)n2)c1 [Compound I-286, N-(6-methoxy-1-methyl-1H-pyrazolo[4,3-c]pyridin-7-yl)-1′-methyl-5′-(trifluoromethyl)-1′H-[1,3′-bipyrazole]-4-sulfonamide]	≤ 400 nM	400 to 1000 nM
COc1ccc2cnn(C)c2c1NS(=O)(=O)c1cnn(-c2cc(CO)ccn2)c1 [Compound I-323, 1-[4-(hydroxymethyl)pyridin-2-yl]-N-(6-methoxy-1-methylindazol-7-yl)pyrazole-4-sulfonamide]	400 to 1000 nM	< 400 nM
COc1ccc2cnn(C)c2c1NS(=O)(=O)c1cnn(-c2cc([C@@H](C)O)ccn2)c1 [Compound I-340, (R)-1-(4-(1-hydroxyethyl)pyridin-2-yl)-N-(6-methoxy-1-methyl-1H-indazol-7-yl)-1H-pyrazole-4-sulfonamide]	≤ 400 nM	< 400 nM
C[C@H]1COC(=O)N1c1ccnc(-n2cc(S(=O)(=O)Nc3cccc4cnn(C)c34)cn2)c1 [Compound I-303]	> 2500 nM	< 400 nM
[2H]C([2H])([2H])Oc1ccc2cnn(C)c2c1NS(=O)(=O)c1cnn(-c2cc(C(F)(F)F)ccn2)c1 [Compound I-70, N-(6-(Methoxy-D3)-1-Methyl-1H-Indazol-7-yl)-1-(4-(Trifluoromethyl)Pyridin-2-yl)-1H-Pyrazole-4-Sulfonamide]	≤ 400 nM	< 400 nM
CN1C(=O)N(c2ccnc(-n3cc(S(=O)(=O)Nc4cccc5cnn(C)c45)cn3)c2)CC1(C)C [Compound I-332]	> 2500 nM	< 400 nM
Cc1n[nH]c2cccc(NS(=O)(=O)c3cnn(-c4cc(C(F)(F)F)ccn4)c3)c12 [Compound I-73, N-(3-Methyl-1H-Indazol-4-yl)-1-(4-(Trifluoromethyl)Pyridin-2-yl)-1H-Pyrazole-4-Sulfonamide]	1000 to 2500 nM	< 400 nM
COc1ncc2cnn(C)c2c1NS(=O)(=O)c1cnn(-c2cc(N3CCCCCC3)ccn2)c1 [Compound I-408]	> 2500 nM	< 400 nM

Results, then the compound that gave them:

IC50 (Avi-tagged FL MALT-1)	IC50 [1]	SMILES
> 2500 nM	< 400 nM	Cn1ncc2cccc(NS(=O)(=O)c3cnn(-c4cc(C5(O)CC(C)(C)C5)ccn4)c3)c21 [Compound I-477, 1-(4-(1-hydroxy-3,3-dimethylcyclobutyl)pyridin-2-yl)-N-(1-methyl-1H-indazol-7-yl)-1H-pyrazole-4-sulfonamide]
> 2500 nM	1000 to 2500 nM	Cn1ncc2cccc(NS(=O)(=O)c3cnn([C@@H]4CCCN(CC(F)(F)F)C4)c3)c21 [Compound I-328]
> 2500 nM	400 to 1000 nM	Cn1ncc2cccc(NS(=O)(=O)c3cnn(-c4ccnc(C5CC5)c4)c3)c21 [Compound I-75, 1-(2-Cyclopropylpyridin-4-yl)-N-(1-Methyl-1H-Indazol-7-yl)-1H-Pyrazole-4-Sulfonamide]
> 2500 nM	< 400 nM	CN1CC(F)(c2ccnc(-n3cc(S(=O)(=O)Nc4cccc5cnn(C)c45)cn3)c2)C1 [Compound I-251, 1-(4-(3-fluoro-1-methylazetidin-3-yl)pyridin-2-yl)-N-(1-methyl-1H-indazol-7-yl)-1H-pyrazole-4-sulfonamide]
> 2500 nM	< 400 nM	Cn1ncc2cccc(NS(=O)(=O)c3cnn(-c4cc(C5(O)CC(F)C5)ccn4)c3)c21 (stereo not drawn) [Compound I-358]
> 2500 nM	< 400 nM	COC1(c2ccnc(-n3cc(S(=O)(=O)Nc4cccc5cnn(C)c45)cn3)c2)CC(C)C1 (stereo not drawn) [Compound I-362, 1-(4-(1-methoxy-3-methylcyclobutyl)pyridin-2-yl)-N-(1-methyl-1H-indazol-7-yl)-1H-pyrazole-4-sulfonamide]
> 2500 nM	> 2500 nM	Cn1ncc2cccc(NS(=O)(=O)c3cnn(-c4ccnc(C(F)(F)F)c4)c3)c21 [Compound I-16, N-(1-Methyl-1H-Indazol-7-yl)-1-(2-(Trifluoromethyl)Pyridin-4-yl)-1H-Pyrazole-4-Sulfonamidemide]
> 2500 nM	< 400 nM	Cn1ncc2cccc(NS(=O)(=O)c3cnn(-c4cc(N5CC(F)C5)ccn4)c3)c21 [Compound I-438, 1-[4-(3-fluoroazetidin-1-yl)pyridin-2-yl]-N-(1-methylindazol-7-yl)pyrazole-4-sulfonamide]
> 2500 nM	< 400 nM	Cn1ncc2cccc(NS(=O)(=O)c3cnn(-c4cc(N5CCCC5)ccn4)c3)c21 [Compound I-249, N-(1-methyl-1H-indazol-7-yl)-1-(4-(pyrrolidin-1-yl)pyridin-2-yl)-1H-pyrazole-4-sulfonamide]
> 2500 nM	< 400 nM	Cn1ncc2cccc(NS(=O)(=O)c3cnn(-c4cc(N5CC6CC6C5)ccn4)c3)c21 (stereo not drawn) [Compound I-375, 1-(4-(3-Azabicyclo[3.1.0]Hexan-3-yl)Pyridin-2-yl)-N-(1-Methyl-1H-Indazol-7-yl)-1H-Pyrazole-4-Sulfonamide]
> 2500 nM	< 400 nM	COC1(C)CN(c2ccnc(-n3cc(S(=O)(=O)Nc4cccc5cnn(C)c45)cn3)c2)C1 [Compound I-446, 1-[4-(3-methoxy-3-methylazetidin-1-yl)pyridin-2-yl]-N-(1-methylindazol-7-yl)pyrazole-4-sulfonamide]
> 2500 nM	< 400 nM	CO[C@@]1(c2ccnc(-n3cc(S(=O)(=O)Nc4cccc5cnn(C)c45)cn3)c2)CCOC1 [Compound I-311]
> 2500 nM	> 2500 nM	CN1CCC[C@@H](n2cc(S(=O)(=O)Nc3cccc4cnn(C)c34)cn2)C1 [Compound I-308, N-(1-methylindazol-7-yl)-1-[(3R)-1-methylpiperidin-3-yl]pyrazole-4-sulfonamide]

Source: patent publication US20240150321A1, “PYRAZOLYLSULFONAMIDE COMPOUNDS AND THEIR USE IN THERAPY” (HOTSPOT THERAPEUTICS, INC., priority 2022, published 2024)
